According to patent US8987193B2, “Nisin derivatives and the use thereof” (University College Cork—National University of Ireland, Cork, priority 2008, dated 2015):
Ends that are not written are not given here.

Experiments:
Assay in all cases: Deferred antagonism assay
[1] = test system: L. monocytogenes CBC3; type: cell-based, Listeria monocytogenes; parameters: key: + = Enhanced bioactivity relative to control; − = Bioactivity equal to or less than control; NA = no activity evident; conditions: producing strain; L. mono CBC3
Method in brief: (§1)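 L. lactis NZ9800 strains expressing nisin A hinge variants were replicated or spotted on GM17 agar, grown overnight, then overlaid with 0.75% w/v agar seeded with indicator. Zone size is the clearing diameter minus 5 mm colony growth.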

[2] = test system: L. monocytogenes CBC2; type: cell-based, Listeria monocytogenes; parameters: key: + = Enhanced bioactivity relative to control; − = Bioactivity equal to or less than control; NA = no activity evident; conditions: producing strain; L. mono CBC2
Method in brief: as §1

[3] = test system: L. monocytogenes CBC1; type: cell-based, Listeria monocytogenes; parameters: key: + = Enhanced bioactivity relative to control; − = Bioactivity equal to or less than control; NA = no activity evident; conditions: producing strain; L. mono CBC1
Method in brief: as §1

[4] = test system: L. lactis CBC7; type: cell-based; parameters: key: + = Enhanced bioactivity relative to control; − = Bioactivity equal to or less than control; NA = no activity evident; conditions: producing strain
Method in brief: as §1

[5] = test system: S. aureus CBC4; type: cell-based; parameters: key: + = Enhanced bioactivity relative to control; − = Bioactivity equal to or less than control; NA = no activity evident; conditions: producing strain
Method in brief: as §1

[6] = test system: L. lactis CBC8; type: cell-based; parameters: key: + = Enhanced bioactivity relative to control; − = Bioactivity equal to or less than control; NA = no activity evident; conditions: producing strain
Method in brief: as §1

[7] = test system: C. sporogenes CBC5; type: cell-based, Clostridium sporogenes; parameters: key: + = Enhanced bioactivity relative to control; − = Bioactivity equal to or less than control; NA = no activity evident; conditions: producing strain
[8] = test system: L. plantarum CBC6; type: cell-based, Lactobacillus plantarum; parameters: key: + = Enhanced bioactivity relative to control; − = Bioactivity equal to or less than control; NA = no activity evident; conditions: producing strain
Method in brief: as §1

[9] = test system: Staph. aureus ST528 (MRSA); type: cell-based; conditions: producing strain, diameter of zone minus diameter of bacterial growth (5 mm), average of duplicates
Description: (§2) Deferred antagonism assays were performed by replicating strains on GM17 or GM17 x-gal agar plates and allowing them to grow overnight before overlaying with either GM17/BHI/TS/MH agar (0.75% w/v agar) seeded with the appropriate indicator strain. Zone size was calculated as the diameter of the zone of clearing minus the diameter of bacterial growth (5 mm) For higher throughput screening of N20PXX, XM21VX, XXK22T and XXX banks deferred antagonism assays were performed by replicating strains using a 96 pin replicator (Boekel) or spotting 5 μl of a fresh overnight culture on GM17 agar plates and allowing them to grow overnight. […] Additional sets of indicators were employed to further assess/reassess the bioactivity of a number of strains. […] For well-diffusion assays molten agar was cooled to 48° C. and seeded with the appropriate indicator strain. The inoculated medium was rapidly transferred into sterile Petri plates in 50 ml volumes, allowed to solidify and dried. Wells (4.6 mm in diameter) were then made in the seeded plates. Purified nisin and mutant nisins were resuspended in 0.005% acetic acid, serially diluted, 50 μl volumes were dispensed into the aforementioned wells and the plates incubated at 37° C. overnight. Bioactivity was expressed as arbitrary units/ml (AU/ml) and calculated as the reciprocal of the highest dilution that gave a definite zone multiplied by the conversion factor (i.e. 20 when 50 μl was used) (Ryan et al., 1996).
(§3) As a consequence of the enhanced activities of K22T and K22S, a more in-depth investigation of this region was carried out. Saturation mutagenesis was undertaken to create a bank of nisin A hinge derivatives containing the vast majority of possible amino acid substitutions for each position. Although pPTPL was used successfully for random mutagenesis, its relatively large size of approx 10.5 kb was considered unsuitable for the complete plasmid PCR amplification approach utilized for saturation mutagenesis. A smaller (approx 6 kb) E. coli-L. lactis shuttle vector pCI372 was considered to be potentially more useful. Its suitability with respect to the in trans expression of nisA was confirmed by the ability of pDFO5 to restore the nisin positive phenotype. Saturation mutagenesis was performed on each codon using pDF05 and oligonucleotides (Table 5) that replace the specific codon with a NNK triplet, potentially encoding all 20 standard amino acids. Following complete plasmid amplification and introduction into the intermediate Top10 host, sequence analysis of a pooled bank of pDF05 derivatives confirmed randomization. Introduction of these variants into L. lactis NZ9800 allowed the expression of mutant nisin A peptides for further analysis. […] 46 residue conversions were isolated. All strains, regardless of bioactivity, were assessed with a view to comprehensively assessing the consequences of each individual hinge alteration.
(§4) Values are an average of duplicate experiments and represent zone size (diameter of zone minus diameter of bacterial growth (i.e. 5 mm) relative to that of the NZ9800 pCI372nisA control. X=Mutants not identified.

[10] = test system: Strep. agalactiae ATCC13813; type: cell-based; conditions: producing strain, diameter of zone minus 5 mm, average of duplicates
Description: as §2, §3, §4

[11] = test system: Staph. aureus DPC5245; type: cell-based; conditions: producing strain; diameter of zone minus 5 mm; average of duplicates; St. aureus DPC5245
Description: as §2, §3, §4

Substance	Bioactivity relative to control [1]	Bioactivity relative to control [2]	Bioactivity relative to control [3]	Bioactivity relative to control [4]	Bioactivity relative to control [5]	Bioactivity relative to control [6]	Bioactivity relative to control [7]	Bioactivity relative to control [8]	zone size relative to that of the NZ9800 pCI372nisA control [9] [%]	zone size relative to that of the NZ9800 pCI372nisA control [10] [%]	zone size relative to that of the NZ9800 pCI372nisA control [11] [%]
K22H: nisin A derivative, hinge substitution K22H (ITSISLCTPGCKTGALMGCNMHTATCHCSIHVSK; cysteine pairing not given here; also: lantibiotic nisin-A; UniProt P13068 24-57, looked up, variant K22H)	−	−	−	−	−	−	−	−	97	104	97
M21W: nisin A derivative, hinge substitution M21W (ITSISLCTPGCKTGALMGCNWKTATCHCSIHVSK; cysteine pairing not given here; also: lantibiotic nisin-A; UniProt P13068 24-57, looked up, variant M21W)	−	−	−	−	−	−	−	−	12	0	14
K22F: nisin A derivative, hinge substitution K22F (ITSISLCTPGCKTGALMGCNMFTATCHCSIHVSK; cysteine pairing not given here; also: lantibiotic nisin-A; UniProt P13068 24-57, looked up, variant K22F)	−	−	−	−	−	−	−	−	29	57	56
M21P: nisin A derivative, hinge substitution M21P (ITSISLCTPGCKTGALMGCNPKTATCHCSIHVSK; cysteine pairing not given here; also: lantibiotic nisin-A; UniProt P13068 24-57, looked up, variant M21P)	−	−	−	−	−	−	−	−	40	0	32
M21F: nisin A derivative, hinge substitution M21F (ITSISLCTPGCKTGALMGCNFKTATCHCSIHVSK; cysteine pairing not given here; also: lantibiotic nisin-A; UniProt P13068 24-57, looked up, variant M21F)	−	−	−	−	−	−	−	−	20	0	21.5
